From patent US20080051418A1, “Arylalkanoic Acid Derivative” (priority 2004, published 2008)
Like-named read-outs stand apart in the source and are kept apart here.

Legend:
PPARγ-RXRα heterodimer = molecular target: T1, PPARγ-RXRα heterodimer (Homo sapiens, UniProt P37231); assay: PPARγ-RXRα heterodimer ligand activity (luciferase reporter); format: cell-based; settings: PPARγ:RXRα:4ERPP/CHO-K1 cells, 18-24 hr, concentration showing 50% of the maximum induction rate
T1 construct: expressed in transfected cells; host or cells: CHO-K1
T1 sequence (P37231 1-505): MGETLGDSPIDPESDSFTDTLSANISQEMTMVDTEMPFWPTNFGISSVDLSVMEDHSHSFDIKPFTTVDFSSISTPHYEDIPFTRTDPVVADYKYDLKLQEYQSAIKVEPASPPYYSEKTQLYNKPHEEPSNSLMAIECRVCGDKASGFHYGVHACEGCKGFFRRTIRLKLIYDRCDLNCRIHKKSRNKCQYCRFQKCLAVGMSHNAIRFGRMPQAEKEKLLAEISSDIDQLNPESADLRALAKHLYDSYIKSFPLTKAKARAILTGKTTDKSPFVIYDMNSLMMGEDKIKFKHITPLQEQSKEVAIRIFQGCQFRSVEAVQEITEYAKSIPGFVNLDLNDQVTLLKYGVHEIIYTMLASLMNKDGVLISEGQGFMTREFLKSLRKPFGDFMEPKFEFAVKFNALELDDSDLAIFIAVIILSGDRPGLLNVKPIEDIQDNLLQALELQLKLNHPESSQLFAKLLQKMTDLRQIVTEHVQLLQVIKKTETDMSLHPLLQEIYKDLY
T1 sequence (P19793 1-462 partner): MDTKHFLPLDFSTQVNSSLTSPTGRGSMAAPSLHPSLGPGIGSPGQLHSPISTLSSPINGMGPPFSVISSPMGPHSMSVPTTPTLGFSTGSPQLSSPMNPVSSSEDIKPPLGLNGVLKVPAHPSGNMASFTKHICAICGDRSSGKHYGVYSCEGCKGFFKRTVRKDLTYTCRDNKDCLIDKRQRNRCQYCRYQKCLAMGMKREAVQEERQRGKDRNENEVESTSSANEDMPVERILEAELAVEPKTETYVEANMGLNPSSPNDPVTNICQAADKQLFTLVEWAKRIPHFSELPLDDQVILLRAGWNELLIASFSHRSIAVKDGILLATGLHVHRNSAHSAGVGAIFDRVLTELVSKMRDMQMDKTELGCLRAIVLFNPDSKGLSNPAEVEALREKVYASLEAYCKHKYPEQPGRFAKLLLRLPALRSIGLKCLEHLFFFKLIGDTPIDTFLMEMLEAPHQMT
Procedure, shortened: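 CHO-K1 cells carrying PPARγ, RXRα and a 4ERPP luciferase reporter, exposed to compound 18–24 h at 37 °C in Ham F12 with 0.1% fatty acid-free BSA. Luciferase induction expressed relative to untreated cells (= 1). EC50 is concentration giving 50% of maximal induction.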

KKA^y mice [1] = assay: Plasma antiatherogenic index increasing action in mice; format: in vivo; settings: Mus musculus, po, 96 h, 4 days, increase rate of (HDL cholesterol/total cholesterol)×100, non-administration group = 100%; for change in vivo at 0.005 %: 0.005% in powder diet
Procedure: The test compound was mixed with a powder diet (CE-2, CLEA JAPAN, INC.) at a proportion of 0.005% (0.01% for the compound of Example 105) and freely given to KKA^y mice (9 to 12-week-old, 5 mice per group) which are obesity-insulin independent diabetes mellitus (type-2 diabetes) models, for 4 days. During this period, water was freely given. The blood was drawn from fundus and the components were measured using the plasma separated from the blood. The total cholesterol was quantified using L Type Wako cholesterol (Wako Pure Chemical Industries, Ltd.). In addition, an HDL cholesterol precipitation reagent (Wako Pure Chemical Industries, Ltd.) was added to a part of the plasma to allow precipitation of a non-HDL lipoprotein, and the cholesterol (HDL cholesterol) of the supernatant was measured. The plasma antiatherogenic index [(HDL cholesterol/total cholesterol)×100] was calculated from these cholesterol values.

PPARδ-RXRα heterodimer = molecular target: T2, PPARδ-RXRα heterodimer (Homo sapiens, UniProt Q03181); assay: PPARδ-RXRα heterodimer ligand activity (luciferase reporter); format: cell-based; settings: transformant of Reference Example 9a of WO03/099793, 36-48 hr, concentration showing 50% of the maximum induction rate
T2 construct: expressed in transfected cells
T2 sequence (Q03181 1-441): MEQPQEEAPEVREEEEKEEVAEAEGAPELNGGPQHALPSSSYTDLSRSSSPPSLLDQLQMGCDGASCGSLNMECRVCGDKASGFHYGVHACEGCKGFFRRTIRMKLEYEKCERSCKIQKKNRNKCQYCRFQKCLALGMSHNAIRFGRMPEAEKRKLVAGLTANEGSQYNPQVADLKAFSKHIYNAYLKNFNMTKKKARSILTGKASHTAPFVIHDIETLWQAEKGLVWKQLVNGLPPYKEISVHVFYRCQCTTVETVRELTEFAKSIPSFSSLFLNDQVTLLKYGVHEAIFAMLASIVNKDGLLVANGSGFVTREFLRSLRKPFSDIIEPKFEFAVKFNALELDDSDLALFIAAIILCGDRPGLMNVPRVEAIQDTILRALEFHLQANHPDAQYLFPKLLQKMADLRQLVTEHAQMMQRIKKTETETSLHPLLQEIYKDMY
T2 sequence (P19793 1-462 partner): T1 sequence (P19793 1-462 partner)
Procedure: The transformant described in Reference Example 9a of WO03/099793 was suspended in a DMEM medium [manufactured by Life technologies, Inc., US] containing 0.1% fatty acid-free bovine serum albumin (BSA) (manufactured by Wako Pure Chemical Industries, Ltd.), and inoculated to each well of a 96 well white plate [manufactured by Corning Coster Corporation, US] by 80 μl to 1×10^4 cells/well. Then, the test compound (20 μl) was added, and cultured under the conditions of 37° C., 5% CO2 for 36-48 hr. The medium was removed from the 96 well white plate, 40 μl of PicaGene LT 7.5 (manufactured by Wako Pure Chemical Industries, Ltd.) diluted 2-fold with HBSS (HANKS' BALANCED SALT SOLUTION) [manufactured by BIO WHITTAKER, US] was added and, after stirring, the luciferase activity was determined using the 1420 ARVO Multilabel Counter [manufactured by PerkinElmer, US].
The induction rate was calculated from the luciferase activity of each test compound based on the luciferase activity of the test compound non-administration group as 1. The test compound concentration and the induction rate were analyzed by PRISM [manufactured by GraphPad Software, Inc., US] to calculate EC50 value (compound concentration showing 50% of the maximum value of induction rate) of the test compound.

KKA^y mice [2] = assay: Blood glucose and blood lipid (triglyceride) lowering action in mice; format: in vivo; settings: Mus musculus, po, 96 h, 4 days, non-administration group = 100%; for inhibition in vivo at 0.005 %: 0.005% in powder diet; for inhibition in vivo at 0.01 %: 0.01% in powder diet (compound of Example 105)
From the text: The test compound was mixed with a powder diet (CE-2, CLEA JAPAN, INC.) at a proportion of 0.005% (0.01% for the compound of Example 105) and freely given to KKA^y mice (9 to 12-week-old, 5 mice per group) which are obesity-insulin independent diabetes mellitus (type-2 diabetes) models, for 4 days. During this period, water was freely given. The blood was drawn from the orbital venous plexus. Glucose and triglyceride in the plasma separated from the blood were quantitated using L Type Wako Glu2 (Wako Pure Chemical Industries, Ltd.) and L Type Wako TG•H (Wako Pure Chemical Industries, Ltd.), respectively, according to an enzyme method.

[3] = lowering rate of plasma glucose, read-out: hypoglycemic action (%)
[4] = lowering rate of plasma triglyceride, read-out: hypolipidemic action (%)

| SMILES | EC50 (PPARγ-RXRα heterodimer) [nM] | change in vivo at 0.005 % (KKA^y mice [1]) [%] | EC50 (PPARδ-RXRα heterodimer) [nM] | inhibition in vivo at 0.005 % (KKA^y mice [2]; [3]) [%] | inhibition in vivo at 0.005 % (KKA^y mice [2]; [4]) [%] | melting point [°C] | change in vivo at 0.01 % (KKA^y mice [1]; 0.01% in powder diet (compound of Example 105)) [%] | inhibition in vivo at 0.01 % (KKA^y mice [2]; [3]) [%] | inhibition in vivo at 0.01 % (KKA^y mice [2]; [4]) [%] |
| --- | --- | --- | --- | --- | --- | --- | --- | --- | --- |
| COCOc1ccc(CCCOc2nn(C)cc2CC(=O)O)c(Oc2ncc(C(F)(F)F)cc2Cl)c1 [Example 111, (3-{3-[2-{[3-chloro-5-(trifluoromethyl)pyridin-2-yl]oxy}-4-(methoxymethoxy)phenyl]propoxy}-1-methyl-1H-pyrazol-4-yl)acetic acid] | 3.8 | 11 | 77 | 64 | 45 | 122 to 123 |  |  |  |
| COc1ccccc1Cn1nc(OC(C)C)cc1CCCOc1c(CC(=O)O)cccc1OC [Example 62, (2-{3-[3-isopropoxy-1-(2-methoxybenzyl)-1H-pyrazol-5-yl]propoxy}-3-methoxyphenyl)acetic acid] | 34 | 13 |  | 48 | 61 |  |  |  |  |
| COc1cccc(CC(=O)O)c1OCCCc1cc(OC(C)C)nn1Cc1ccc(Cl)cc1Cl [Example 16, (2-{3-[1-(2,4-dichlorobenzyl)-3-isopropoxy-1H-pyrazol-5-yl]propoxy}-3-methoxyphenyl)acetic acid] | 2.3 | 13 | 14 | 57 | 28 |  |  |  |  |
| COCOc1ccc(CCCOc2c(CC(=O)O)cccc2OC)c(Oc2ccc(C(F)(F)F)cn2)c1 [Example 105, {3-methoxy-2-[3-(4-(methoxymethoxy)-2-{[5-(trifluoromethyl)pyridin-2-yl]oxy}phenyl)propoxy]phenyl}acetic acid] |  |  |  |  |  |  | 13 | 64 | 64 |
| CCCOc1cc(CCCOc2c(CC(=O)O)cccc2OC)n(Cc2ccc(Cl)cc2Cl)n1 [Example 57, (2-{3-[1-(2,4-dichlorobenzyl)-3-propoxy-1H-pyrazol-5-yl]propoxy}-3-methoxyphenyl)acetic acid] | 1.4 | 15 | 21 |  |  |  |  |  |  |
| CCn1cc(CC(=O)O)c(OCCCc2ccc(OC(C)C)cc2Oc2ccc(C(F)(F)F)cn2)n1 [Example 108, {1-ethyl-3-[3-(4-isopropoxy-2-{[5-(trifluoromethyl)pyridin-2-yl]oxy}phenyl)propoxy]-1H-pyrazol-4-yl}acetic acid] |  | 12 |  |  |  |  |  |  |  |
| CCCOc1cc(CCCOc2c(CC(=O)O)cccc2OC)n(Cc2ccccc2)n1 [Example 56, {2-[3-(1-benzyl-3-propoxy-1H-pyrazol-5-yl)propoxy]-3-methoxyphenyl}acetic acid] |  | 12 |  |  |  |  |  |  |  |
| COc1cccc(CC(=O)O)c1OCCCc1cc(OC(C)C)nn1Cc1ccc(C(F)(F)F)cc1 [Example 51, [2-(3-{3-isopropoxy-1-[4-(trifluoromethyl)benzyl]-1H-pyrazol-5-yl}propoxy)-3-methoxyphenyl]acetic acid] | 39 | 15 |  |  |  | 116 to 117 |  |  |  |
| CCn1cc(CC(=O)O)c(OCCCc2cc(OC(C)C)nn2Cc2ccc(Cl)cc2Cl)n1 [Example 22, (3-{3-[1-(2,4-dichlorobenzyl)-3-isopropoxy-1H-pyrazol-5-yl]propoxy}-1-ethyl-1H-pyrazol-4-yl)acetic acid] | 15 | 12 |  | 49 | 53 |  |  |  |  |
